In patent US8455240B2, “Use of thermophilic sulphate-reducing archaea for the implementation of a process for the degradation of hydrocarbons” (Institut de Recherche pour le Development (I.R.D.), priority 2005, dated 2013):
Several values for one entry are separate records, joined by “and”; a condition that tells them apart may be missing. Identical values can stand only once.

Key:
strain L-3 [1] = assay: Screening for hydrocarbon degradation, strain L-3 (sulphide production, Cord-Ruwish); format: cell-based, Archaeoglobus fulgidus CNCM I-3465 (strain L-3); conditions: 45 d
Procedure: (§1) Experimentally, 4 ml of Cord-Ruwish reagent comprising 50 mmol/l of HCl and 5 mmol/l of CuSO4 are added to 0.1 ml of sample. Copper sulphate (CuSO4) by reacting with hydrogen sulphide (H2S), forms a copper sulphide precipitate (CuS) after the reaction: CuSO4+H2S→CuS+H2SO4
(§2) According to this method, the CuS is assayed by spectrophotometry at 480 nm. The readings are carried out against a blank constituted by 4 ml of Cord-Ruwish reagent.
(§3) The study of the hydrocarbon degradation abilities is an experiment which requires a particularly long incubation. Thus, it was carried out in Bellco tubes sealed with thick rubber stoppers.
(§4) For these experiments, tubes containing 10 ml of culture medium without substrate, are 10% inoculated, then the hydrocarbon is introduced by injection through the stopper.
(§5) The hydrocarbons chosen are model molecules belonging to the different classes of hydrocarbons, namely: • hexadecane (CH3(CH2)14CH3, C16), a saturated linear aliphatic hydrocarbon; • hexadecene (CH3(CH2)13CHCH2, C16:1), an unsaturated linear aliphatic hydrocarbon of biogenic origin; • dibenzothiophene (DBT, C12H8S), a sulphur-containing aromatic hydrocarbon.
(§6) The aliphatic hydrocarbons (C16; C16:1) are added to the corresponding tubes, at a rate of 0.04 ml/10 ml of culture medium. The aromatic hydrocarbons (DBT) are solubilized in 2,2,4,4,6,8,8-heptamethylnonane (HMN, C16H34) at a rate of 20 mg/ml of HMN, and 0.75 ml of this solution is injected into 10 ml of culture medium.
(§7) 3 tubes were produced for each test and control. The growth of the strains was monitored indirectly by the production of sulphide.
(§8) A subculture was carried out starting from the preceding experiment on naphthalene, DBT solubilized as previously in HMN, and on HMN alone, for the two strains studied.

Archaeoglobus fulgidus [2] = assay: Screening for hydrocarbon degradation, A. fulgidus (sulphide production, Cord-Ruwish); format: cell-based
Procedure: as §1, §2, §3, §4, §5, §6, §7, §8

A. fulgidus = assay: Subculture on hydrocarbons, A. fulgidus (sulphide production); format: cell-based, Archaeoglobus fulgidus
Procedure: as §1, §2, §8
(§9) For this subculture, apart from the tests containing the hydrocarbon (DBT, naphthalene (Naph), […]), and seeded with the previously chosen inoculum, abiotic controls (negative controls) containing the substrate (hydrocarbon) but not inoculated were produced for the purpose of quantifying the sulphide production which could be due to chemical reactions between the different constituents of the medium. In these controls there was no development in the concentration of sulphide over a period of 20 days (Table 4).

strain L-3 [3] = assay: Subculture on hydrocarbons, strain L-3 (sulphide production); format: cell-based, Archaeoglobus fulgidus CNCM I-3465 (strain L-3)
Procedure: as §1, §2, §8, §9

[4] = test system: Archaeoglobus fulgidus (DSM 4304); assay: Degradation of different substrates by A. fulgidus as a function of the electron acceptor; format: cell-based; conditions: for total H2S: unit from b116
Procedure: as §1, §2
(§10) The analysis and quantification of the metabolites are carried out by HPLC by measuring the disappearance of the substrate and the appearance of different metabolism products.
(§11) The study of the degradation abilities of different substrates of the strain L-3 was based on a comparison with the collection strain, Archaeoglobus fulgidus (DSM 4304). The degradation of the substrates, by the two strains was monitored by a measurement of the cell biomass at 580 nm, a sulphide assay produced according to the Cord-Ruwish method, a study of the degradation metabolites by HPLC, completed by a CO2 assay with a GPC-Katharometer.
(§12) Two series of tests were prepared, one with thiosulphate, the other with sulphate as an electron acceptor.

Archaeoglobus fulgidus [5] = assay: Degradation kinetics of lactate; format: cell-based
Procedure: as §10
This can be explained by the fact that the strain L-3 can have a substrate degradation metabolism different from that of Archaeoglobus fulgidus.

strain L-3 [6] = assay: Sources of carbon and energy used by the strain L-3; format: cell-based, Archaeoglobus fulgidus CNCM I-3465 (strain L-3); conditions: thiosulphate as electron acceptor; for H2S (480 nm): unit from b126
Procedure: as §1, §2, §10
The study of the growth of the strain L-3 in the presence of different sources of carbon and energy was carried out with thiosulphate as an electron acceptor. The monitoring was carried out by estimation of the cell biomass (OD 580 nm), by assay of the sulphide production (Cord-Ruwish). The results were confirmed by HPLC analyses, and completed in certain cases by a CO2 assay.

strain L-3 [7] = assay: Degradation of different substrates by the strain L-3 as a function of the electron acceptor; format: cell-based, Archaeoglobus fulgidus CNCM I-3465 (strain L-3); design: total H2S: unit not given here
Procedure: as §1, §2, §10, §11, §12

[8] = thiosulphate as electron acceptor
[9] = thiosulphate or sulphate as electron acceptor

Substance: lactate
- sulphide production (OD 480) 45 d (strain L-3 [1]): 1.8 mM and 3.2 mM and 1.7 mM
- sulphide production (OD 480) 45 d (Archaeoglobus fulgidus [2]; 45 d): 3.5 mM and 3.8 mM and 4.3 mM
- sulphide production (OD 480) 60 d (Archaeoglobus fulgidus [2]; 60 d): 3.3 mM and 3 mM and 3.1 mM
- sulphide production (OD 480) 70 d (Archaeoglobus fulgidus [2]; 70 d): 3.9 mM and 3.7 mM
- ΔS tf-ti (Archaeoglobus fulgidus [2]; final minus initial sulphide): 3.6 mM and 3.2 mM
- sulphide production (OD 480) 8 d (A. fulgidus; 8 d): 0.3 mM
- sulphide production (OD 480) 22 d (A. fulgidus; 22 d): 0.3 mM
- sulphide production (OD 480) 45 d (A. fulgidus; 45 d): 0.2 mM and 0.3 mM
- sulphide production (OD 480) 0 d (strain L-3 [3]; 0 d): 0.2 mM and 0.1 mM
- sulphide production (OD 480) 8 d (strain L-3 [3]; 8 d): 4.8 mM and 6.1 mM
- sulphide production (OD 480) 22 d (strain L-3 [3]; 22 d): 4.7 mM and 8 mM
- sulphide production (OD 480) 45 d (strain L-3 [3]; 45 d): 3.9 mM
- initial OD 580 ([4]; sulphate as electron acceptor): 0.1657 and 0.1456
- total H2S ([4]; sulphate as electron acceptor): 7.1 mM and 12.2 mM
- final OD 580 [4, 8]: 0.3681 and 0.314
- initial OD 580 [4, 8]: 0.1333 and 0.1419
- total H2S [4, 8]: 8 mM and 9.3 mM
- ability of Archaeoglobus fulgidus to oxidize the substrate [4, 9]: capable of oxidizing
- lactate degradation at the end of three months (Archaeoglobus fulgidus [5]): all of the lactate is degraded
- OD 580 nm Final (strain L-3 [6]): 0.1249 and 0.1173
- OD 580 nm Initial (strain L-3 [6]): 0.0742 and 0.0841
- H2S (480 nm) (strain L-3 [6]): 5.7 mM and 2.9 mM
- H2S (480 nm) (strain L-3 [6]; listed as lactate): 5.7 mM
- final OD 580 (strain L-3 [7]; sulphate as electron acceptor): 0.3076 and 0.2071
- initial OD 580 (strain L-3 [7]; sulphate as electron acceptor): 0.1024 and 0.0888
- total H2S (strain L-3 [7]; sulphate as electron acceptor): 2.8 and 1.4
- final OD 580 (strain L-3 [7]; [8]): 0.1027 and 0.1161
- initial OD 580 (strain L-3 [7]; [8]): 0.073 and 0.1029
- total H2S (strain L-3 [7]; [8]): 9.3 and 7.2
- ability of the strain L-3 to degrade the substrate (strain L-3 [7]; [9]): capable of degrading
